Assay results: ChEMBL document CHEMBL5634084, “Design and optimization of selective and potent CDK9 inhibitors with flavonoid scaffold for the treatment of acute myeloid leukemia” (Eur J Med Chem, 2023)
Activity calls are given as the source filed them. The rule behind the calls is not given here.

Key:
[1] = target: Dual specificity mitogen-activated protein kinase kinase 5 (Homo sapiens) (UniProt Q13163); assay: Inhibition of wild type partial length human MEK5 (98 to 448 residues) expressed in mammalian expression system at 1 uM by KINOMEscan analysis
Chain of Dual specificity mitogen-activated protein kinase kinase 5 (Homo sapiens) (Q13163 whole entry, the tested form may be a part): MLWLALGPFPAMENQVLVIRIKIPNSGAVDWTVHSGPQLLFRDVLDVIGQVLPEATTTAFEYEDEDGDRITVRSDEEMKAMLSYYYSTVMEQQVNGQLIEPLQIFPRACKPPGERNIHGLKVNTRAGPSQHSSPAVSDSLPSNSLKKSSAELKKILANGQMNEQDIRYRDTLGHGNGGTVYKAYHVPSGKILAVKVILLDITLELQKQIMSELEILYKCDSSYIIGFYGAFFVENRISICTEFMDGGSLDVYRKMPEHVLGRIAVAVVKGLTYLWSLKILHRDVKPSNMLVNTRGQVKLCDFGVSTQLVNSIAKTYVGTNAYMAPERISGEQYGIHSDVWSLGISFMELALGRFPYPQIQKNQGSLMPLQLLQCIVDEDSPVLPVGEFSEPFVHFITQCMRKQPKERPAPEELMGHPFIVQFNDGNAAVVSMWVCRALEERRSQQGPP

MV4-11 [2] = assay: Induction of apoptosis in human MV4-11 cells assessed as viable cells at 2 uM incubated for 24 hrs by AnnexinV-FITC/PI staining based flow cytometry (reference value: 93.4%); format: functional; conditions: read-out: Activity
MV4-11 [3] = assay: Induction of cell cycle arrest in human MV4-11 cells assessed as accumulation of cells at S phase at 0.2 uM incubated fo 36 hrs by propidium iodide staining based flow cytometry (reference value: 26.5%); format: functional
[4] = target: Cyclin-dependent kinase 4/cyclin D1 (Homo sapiens, UniProt P11802); assay: Inhibition of CDK4/CyclinD1 (unknown origin) by ADP-Glo assay; format: protein-complex assay
[5] = target: Cyclin-dependent kinase 9 (Homo sapiens) (UniProt P50750); assay: Inhibition of CDK9 in human MV4-11 cells assessed as reduction in c-Myc mRNA expression at 0.1 to 2 uM incubated for 12 hrs by qPCR analysis; format: cell-based; conditions: dose 0.1-2 µM
Chain of Cyclin-dependent kinase 9 (Homo sapiens) (P50750 whole entry, the tested form may be a part): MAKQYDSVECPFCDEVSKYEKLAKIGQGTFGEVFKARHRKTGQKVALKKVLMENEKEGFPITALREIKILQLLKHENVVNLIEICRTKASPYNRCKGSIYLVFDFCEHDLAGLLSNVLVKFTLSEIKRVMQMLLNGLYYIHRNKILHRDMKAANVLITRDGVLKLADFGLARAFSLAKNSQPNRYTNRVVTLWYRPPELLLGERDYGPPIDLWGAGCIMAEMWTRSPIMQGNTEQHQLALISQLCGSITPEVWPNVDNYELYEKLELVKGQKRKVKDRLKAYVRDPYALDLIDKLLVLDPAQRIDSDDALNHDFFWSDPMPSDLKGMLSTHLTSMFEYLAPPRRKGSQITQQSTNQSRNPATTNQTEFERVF

[6] = target: Mitogen-activated protein kinase kinase kinase 7 (Homo sapiens) (UniProt O43318); assay: Inhibition of wild type partial length human TAK1 (1 to 303 residues) expressed in mammalian expression system at 1 uM by KINOMEscan analysis
Chain of Mitogen-activated protein kinase kinase kinase 7 (Homo sapiens) (O43318 whole entry, the tested form may be a part): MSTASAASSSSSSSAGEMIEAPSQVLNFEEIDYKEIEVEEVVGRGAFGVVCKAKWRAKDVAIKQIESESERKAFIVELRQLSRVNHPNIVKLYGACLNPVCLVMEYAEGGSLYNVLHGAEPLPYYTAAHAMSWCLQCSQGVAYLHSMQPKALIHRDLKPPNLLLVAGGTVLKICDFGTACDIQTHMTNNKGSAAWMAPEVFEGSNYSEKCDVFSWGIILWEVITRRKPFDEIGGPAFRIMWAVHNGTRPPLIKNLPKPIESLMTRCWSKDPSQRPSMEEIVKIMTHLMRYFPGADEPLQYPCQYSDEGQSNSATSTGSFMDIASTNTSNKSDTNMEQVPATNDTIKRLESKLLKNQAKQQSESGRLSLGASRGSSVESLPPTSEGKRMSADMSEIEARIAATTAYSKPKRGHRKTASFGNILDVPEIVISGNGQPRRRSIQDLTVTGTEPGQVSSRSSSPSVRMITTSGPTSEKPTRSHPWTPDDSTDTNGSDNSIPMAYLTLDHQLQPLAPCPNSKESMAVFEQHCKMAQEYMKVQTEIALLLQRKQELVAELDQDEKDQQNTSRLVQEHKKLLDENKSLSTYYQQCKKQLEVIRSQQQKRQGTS

[7] = target: Mitogen-activated protein kinase kinase kinase kinase 2 (Homo sapiens) (UniProt Q12851); assay: Inhibition of wild type partial length human MAP4K2 (1 to 318 residues) expressed in mammalian expression system at 1 uM by KINOMEscan analysis
Chain of Mitogen-activated protein kinase kinase kinase kinase 2 (Homo sapiens) (Q12851 whole entry, the tested form may be a part): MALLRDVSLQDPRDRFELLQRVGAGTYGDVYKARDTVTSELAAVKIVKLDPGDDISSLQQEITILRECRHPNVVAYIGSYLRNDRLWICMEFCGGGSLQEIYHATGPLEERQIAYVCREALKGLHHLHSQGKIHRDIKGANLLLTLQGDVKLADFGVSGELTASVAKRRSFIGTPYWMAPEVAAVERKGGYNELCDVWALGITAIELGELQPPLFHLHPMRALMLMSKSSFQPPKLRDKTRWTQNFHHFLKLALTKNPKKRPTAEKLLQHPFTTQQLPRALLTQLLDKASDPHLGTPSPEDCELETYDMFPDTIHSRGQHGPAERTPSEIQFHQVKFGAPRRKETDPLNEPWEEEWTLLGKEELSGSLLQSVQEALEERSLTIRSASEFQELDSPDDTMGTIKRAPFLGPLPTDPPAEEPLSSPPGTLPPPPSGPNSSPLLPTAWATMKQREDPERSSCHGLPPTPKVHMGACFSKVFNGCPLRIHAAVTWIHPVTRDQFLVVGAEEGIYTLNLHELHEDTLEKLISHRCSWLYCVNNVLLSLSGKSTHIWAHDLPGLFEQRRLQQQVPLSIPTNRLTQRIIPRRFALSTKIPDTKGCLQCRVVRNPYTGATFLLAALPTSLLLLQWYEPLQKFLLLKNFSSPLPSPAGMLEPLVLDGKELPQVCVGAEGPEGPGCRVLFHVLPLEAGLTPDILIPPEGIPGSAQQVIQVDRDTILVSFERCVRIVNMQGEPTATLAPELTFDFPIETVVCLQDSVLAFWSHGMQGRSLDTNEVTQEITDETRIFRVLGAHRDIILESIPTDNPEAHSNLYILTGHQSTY

MV4-11 [8] = assay: Induction of apoptosis in human MV4-11 cells assessed as early apoptotic cells at 0.5 uM incubated for 24 hrs by AnnexinV-FITC/PI staining based flow cytometry (reference value: 1.42%); format: functional
MV4-11 [9] = assay: Induction of apoptosis in human MV4-11 cells assessed as late apoptotic cells at 2 uM incubated for 24 hrs by AnnexinV-FITC/PI staining based flow cytometry (reference value: 5.21%); format: functional
MV4-11 [10] = assay: Induction of apoptosis in human MV4-11 cells assessed as early apoptotic cells at 2 uM incubated for 24 hrs by AnnexinV-FITC/PI staining based flow cytometry (reference value: 1.42%); format: functional
MV4-11 [11] = assay: Induction of apoptosis in human MV4-11 cells assessed as viable cells at 1 uM incubated for 24 hrs by AnnexinV-FITC/PI staining based flow cytometry (reference value: 93.4%); format: functional; conditions: read-out: Activity
[12] = target: Cyclin-dependent kinase 7 (Homo sapiens) (UniProt P50613); assay: Inhibition of wild type full length human CDK7 (1 to 344 esidues) expessed in mammalian expression system at 1 uM by KINOMEscan analysis
[13] = target: Rho-associated protein kinase 2 (Homo sapiens) (UniProt O75116); assay: Inhibition of wild type partial length human ROCK2 (1 to 431 residues) expressed in mammalian expression system at 1 uM by KINOMEscan analysis
Chain of Rho-associated protein kinase 2 (Homo sapiens) (O75116 whole entry, looked up, the tested form may be a part): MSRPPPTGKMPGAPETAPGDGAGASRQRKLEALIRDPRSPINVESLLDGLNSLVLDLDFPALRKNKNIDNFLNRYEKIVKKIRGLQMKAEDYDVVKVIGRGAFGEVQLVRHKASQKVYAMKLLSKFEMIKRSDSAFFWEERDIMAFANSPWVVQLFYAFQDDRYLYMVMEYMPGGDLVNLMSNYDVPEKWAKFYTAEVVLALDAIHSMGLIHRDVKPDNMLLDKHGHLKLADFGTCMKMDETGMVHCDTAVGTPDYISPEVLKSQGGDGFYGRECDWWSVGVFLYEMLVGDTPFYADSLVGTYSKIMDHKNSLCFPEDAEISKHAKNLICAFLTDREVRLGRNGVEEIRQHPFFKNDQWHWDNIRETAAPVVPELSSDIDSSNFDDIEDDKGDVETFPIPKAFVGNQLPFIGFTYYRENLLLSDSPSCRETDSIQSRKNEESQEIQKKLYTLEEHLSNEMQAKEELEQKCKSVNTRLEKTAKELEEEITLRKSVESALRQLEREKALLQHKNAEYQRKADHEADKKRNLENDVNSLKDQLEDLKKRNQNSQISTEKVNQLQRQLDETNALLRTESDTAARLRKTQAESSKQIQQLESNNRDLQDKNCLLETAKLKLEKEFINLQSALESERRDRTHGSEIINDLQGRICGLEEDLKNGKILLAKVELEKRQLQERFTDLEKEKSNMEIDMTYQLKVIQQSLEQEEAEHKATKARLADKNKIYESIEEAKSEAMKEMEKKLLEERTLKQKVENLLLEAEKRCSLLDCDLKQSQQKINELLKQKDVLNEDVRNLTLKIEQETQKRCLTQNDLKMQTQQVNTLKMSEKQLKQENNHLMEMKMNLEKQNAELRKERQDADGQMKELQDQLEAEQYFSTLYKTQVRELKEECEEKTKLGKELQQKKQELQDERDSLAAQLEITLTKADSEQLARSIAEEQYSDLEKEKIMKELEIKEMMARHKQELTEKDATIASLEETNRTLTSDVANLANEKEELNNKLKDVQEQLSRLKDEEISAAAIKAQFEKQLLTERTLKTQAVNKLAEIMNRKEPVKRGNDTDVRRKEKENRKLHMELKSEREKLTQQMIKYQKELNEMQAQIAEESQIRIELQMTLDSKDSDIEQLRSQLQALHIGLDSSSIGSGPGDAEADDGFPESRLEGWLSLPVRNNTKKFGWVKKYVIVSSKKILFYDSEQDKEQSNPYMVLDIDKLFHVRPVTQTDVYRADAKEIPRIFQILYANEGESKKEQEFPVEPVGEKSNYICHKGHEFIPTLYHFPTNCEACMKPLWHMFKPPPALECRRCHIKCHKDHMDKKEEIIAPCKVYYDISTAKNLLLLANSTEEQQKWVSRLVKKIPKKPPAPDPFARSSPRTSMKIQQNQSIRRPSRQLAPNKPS

MV4-11 [14] = assay: Induction of apoptosis in human MV4-11 cells assessed as necrotic cells at 4 uM incubated for 24 hrs by AnnexinV-FITC/PI staining based flow cytometry (reference value: 0%); format: functional
MV4-11 [15] = assay: Induction of apoptosis in human MV4-11 cells assessed as early apoptotic cells at 0.1 uM incubated for 24 hrs by AnnexinV-FITC/PI staining based flow cytometry (reference value: 1.42%); format: functional
MOLM-13 = assay: Antiproliferative activity against human MOLM-13 cells assessed as reduction in cell viability measured after 72 hrs; format: functional, cell-based; conditions: MOLM-13, 72 h
MV4-11 [16] = assay: Antitumor activity against human MV4-11 cells xenografted in BALB/c mouse assessed as inhibition of tumor growth at 15 mg/kg, iv qd and measured every 2 days; format: functional; conditions: MV4-11, 48 h, read-out: TGI
MV4-11 [17] = assay: Induction of cell cycle arrest in human MV4-11 cells assessed as accumulation of cells at G2/M phase at 0.8 uM incubated fo 36 hrs by propidium iodide staining based flow cytometry (reference value: 9.5%); format: functional
MV4-11 [18] = assay: Induction of apoptosis in human MV4-11 cells assessed as late apoptotic cells at 0.5 uM incubated for 24 hrs by AnnexinV-FITC/PI staining based flow cytometry (reference value: 5.21%); format: functional
[19] = target: Cyclin-dependent kinase 4/cyclin D1 (Homo sapiens) (UniProt P11802+P24385); assay: Inhibition of wild type full length human CDK4 (1 to 303 residues)/CyclinD1 expressed in mammalian expression system at 1 uM by KINOMEscan analysis
MV4-11 [20] = assay: Induction of apoptosis in human MV4-11 cells assessed as necrotic cells at 0.5 uM incubated for 24 hrs by AnnexinV-FITC/PI staining based flow cytometry (reference value: 0%); format: functional
[21] = target: Serine/threonine-protein kinase SIK3 (Homo sapiens) (UniProt Q9Y2K2); assay: Inhibition of wild type partial length human QSK (90 to 395 residues) expressed in mammalian expression system at 1 uM by KINOMEscan analysis
CDK7/Cyclin H/MNAT1 = CDK7/Cyclin H/MNAT1 (Homo sapiens, UniProt P50613); assay: Inhibition of CDK7/Cyclin H/MAT1 (unknown origin) by ADP-Glo assay; format: protein-complex assay
[22] = target: CDK2/Cyclin A2 (Homo sapiens) (UniProt P24941+P20248); assay: Inhibition of CDK2/CyclinA2 (unknown origin) at 100 nM by ADP-Glo assay relative to control; format: protein-complex assay
HL-60 = assay: Antiproliferative activity against human HL-60 cells assessed as reduction in cell viability measured after 72 hrs; format: functional, cell-based; conditions: HL-60, 72 h
[23] = Toxicity in BALB/c mouse xenografted with human MV4-11 cells assessed as animal's mortality at 7.5 to 15 mg/kg, iv qd; format: organism-based; conditions: in vivo, dose 7.5-15 mg/kg
MV4-11 [24] = assay: Induction of apoptosis in human MV4-11 cells assessed as increase in cleaved caspase 3 protein expression incubated for 24 hrs by western blot analysis; format: functional, cell-based; conditions: dose 0.1-4 µM
MV4-11 [25] = assay: Downregulation of cyclin T1 protein expression in human MV4-11 cells incubated for 12 hrs by western blot analysis; format: functional, cell-based; conditions: dose 0.1-4 µM
[26] = target: Cyclin-dependent kinase 12 (Homo sapiens) (UniProt Q9NYV4); assay: Inhibition of wild type partial length human CDK12 (697 to 1077 residues) to expressed in mammalian expression system at 1 uM by KINOMEscan analysis
[27] = target: Cyclin-dependent kinase 9 (Homo sapiens) (UniProt P50750); assay: Inhibition of CDK9 in human MV4-11 cells assessed as reduction in Mcl-1 mRNA expression at 0.1 to 2 uM incubated for 12 hrs by qPCR analysis; format: cell-based; conditions: dose 0.1-2 µM
[28] = target: Calcium-dependent protein kinase 1 (Plasmodium falciparum) (UniProt P62344); assay: Inhibition of wild type full length Plasmodium falciparum PFCDPK1 (1 to 524 residues) expressed in mammalian expression system at 1 uM by KINOMEscan analysis
Chain of Calcium-dependent protein kinase 1 (Plasmodium falciparum) (P62344 2-524 limits assumed): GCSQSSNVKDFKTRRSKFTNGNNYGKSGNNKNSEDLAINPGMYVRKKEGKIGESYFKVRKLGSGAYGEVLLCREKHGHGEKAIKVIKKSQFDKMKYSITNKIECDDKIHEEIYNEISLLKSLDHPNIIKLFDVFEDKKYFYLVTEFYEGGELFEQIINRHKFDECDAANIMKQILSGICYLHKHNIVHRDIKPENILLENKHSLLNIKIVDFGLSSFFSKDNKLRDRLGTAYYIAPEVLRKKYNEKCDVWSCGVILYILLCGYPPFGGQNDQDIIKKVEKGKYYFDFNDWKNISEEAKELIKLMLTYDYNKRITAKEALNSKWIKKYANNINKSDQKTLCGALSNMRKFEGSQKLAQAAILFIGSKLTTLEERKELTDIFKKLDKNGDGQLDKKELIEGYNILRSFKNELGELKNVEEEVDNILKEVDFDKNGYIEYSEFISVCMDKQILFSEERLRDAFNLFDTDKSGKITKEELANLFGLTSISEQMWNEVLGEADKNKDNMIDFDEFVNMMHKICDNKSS

CDK6/cyclin D1 = CDK6/cyclin D1 (Homo sapiens, UniProt Q00534); assay: Inhibition of CDK6/CyclinD1 (unknown origin) by ADP-Glo assay; format: protein-complex assay
Chain of CDK6/cyclin D1 (P24385 whole entry): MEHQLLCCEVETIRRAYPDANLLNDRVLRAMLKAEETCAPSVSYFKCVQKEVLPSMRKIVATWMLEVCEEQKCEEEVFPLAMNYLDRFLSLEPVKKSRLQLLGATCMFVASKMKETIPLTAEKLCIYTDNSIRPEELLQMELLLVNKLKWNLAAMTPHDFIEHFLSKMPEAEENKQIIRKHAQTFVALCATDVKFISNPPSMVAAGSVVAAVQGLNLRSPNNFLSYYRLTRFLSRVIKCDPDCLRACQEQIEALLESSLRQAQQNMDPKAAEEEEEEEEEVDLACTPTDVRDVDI
Chain of CDK6/cyclin D1 (Q00534 whole entry): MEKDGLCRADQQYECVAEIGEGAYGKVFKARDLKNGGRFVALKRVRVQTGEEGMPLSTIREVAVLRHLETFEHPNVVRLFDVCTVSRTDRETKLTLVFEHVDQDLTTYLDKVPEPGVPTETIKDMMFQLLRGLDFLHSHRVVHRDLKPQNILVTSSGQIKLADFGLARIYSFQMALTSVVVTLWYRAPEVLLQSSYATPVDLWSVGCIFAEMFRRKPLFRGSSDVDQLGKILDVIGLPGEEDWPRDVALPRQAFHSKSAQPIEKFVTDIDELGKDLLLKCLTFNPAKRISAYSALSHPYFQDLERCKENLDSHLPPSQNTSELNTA

In the case of `COc1cc(O)c2c(=O)cc(-c3ccc(N4CCN(C)CC4)cc3)oc2c1C1=CCN(C)CC1`, the inhibition [1] is reported as 0%, the viability at 2 µM (MV4-11 [2]) is reported as 3.12% and the Activity (MV4-11 [3]) is reported as 19%. For the same molecule, the IC50 [4] was 0.053 µM, the inhibition [5] was “Active” and the inhibition [6] was 9.5%. It also gave an inhibition [7] of 9.9%, an Activity (MV4-11 [8]) of 1.96% and an Activity (MV4-11 [9]) of 29.8%. For the same molecule, the Activity (MV4-11 [10]) was 67%, the viability at 1 µM (MV4-11 [11]) was 69.1% and the inhibition [12] was 4.8%. It also gave an inhibition [13] of 6%, an Activity (MV4-11 [14]) of 0.42% and an Activity (MV4-11 [15]) of 1.46%. The IC50 (MOLM-13) was 0.16 µM, the inhibition in vivo at 15 mg/kg (MV4-11 [16]) was 65% and the Activity (MV4-11 [17]) was 5%. It also gave an Activity (MV4-11 [18]) of 10.2%, an inhibition [19] of 5.3% and an Activity (MV4-11 [20]) of 0%. For the same molecule, the inhibition [21] was 3.3%, the IC50 (CDK7/Cyclin H/MNAT1) was 0.536 µM and the inhibition [22] was 16.7%. For the same molecule, the IC50 (HL-60) was 0.18 µM, the Activity [23] was “Non-Toxic” and the Activity (MV4-11 [24]) was “Dose-Dependent Effect”. The inhibition (MV4-11 [25]) was “Dose-Dependent Effect”, the inhibition [26] was 0% and the inhibition [27] was “Active”. The inhibition [28] was 2.2% and the IC50 (CDK6/cyclin D1) was 0.589 µM.
